Laboratory results: patent publication US8822754B2, “Ecdysone receptor-based inducible gene expression system” (Intrexon Corporation, priority 2000, dated 2014)

Key:
GAL4CfEcRVP16 = test: Transactivation of reporter genes through switch 1.6 in CHO cells; assay type: cell-based, Choristoneura fumiferana; settings: switch 1.6 GAL4CfEcRVP16, pGAL4RELuc
Experimental: This construct was prepared so that both the GAL4 DNABD and the VP16AD were placed on the same molecule. GAL4DNABD (SEQ ID NO: 41) and VP16AD (SEQ ID NO: 45) were fused to CfEcRDEF (SEQ ID NO: 3) at N- and C-termini respectively.
(§1) The cells were harvested and reporter activity was assayed.
(§2) Cells were harvested 24-48 hr after adding ligands. […] Twenty μl of lysate was assayed.

GAL4EcR + VP16RXR [1] = test: Transactivation of reporter genes through switch 1.1 in CHO cells; assay type: cell-based, Choristoneura fumiferana; settings: switch 1.1 GAL4EcR + VP16RXR, pGAL4RELuc
Experimental: as §1, §2

CfVgRXR + MmRXR [2] = test: Transactivation of reporter genes through switch 1.9 in CHO cells; assay type: cell-based, Choristoneura fumiferana; settings: switch 1.9 CfVgRXR + MmRXR, pIND(SP1)LacZ
Experimental: (§3) This example was prepared in the same way as switch 1.8 except DinEcR was replaced with a truncated CfEcR comprising a partial A/B domain and the complete CDEF domains [SEQ ID NO: 62 (polynucleotide) and SEQ ID NO: 63 (polypeptide)].
as §1, §2

GAL4EcR + VP16RXR [3] = test: Transactivation of reporter genes through switch 1.1 in 3T3 cells
Text: In various cellular backgrounds, including mammalian cells, insect ecdysone receptor (EcR) heterodimerizes with retinoid X receptor (RXR) and, upon binding of ligand, transactivates genes under the control of ecdysone response elements. Applicants constructed several EcR-based gene expression cassettes based on the spruce budworm Choristoneura fumiferana EcR (“CfEcR”; full length polynucleotide and amino acid sequences are set forth in SEQ ID NO: 49 and SEQ ID NO: 50, respectively), C. fumiferana ultraspiracle (“CfUSP”; full length polynucleotide and amino acid sequences are set forth in SEQ ID NO: 51 and SEQ ID NO: 52, respectively), and mouse Mus musculus RXRα (MmRXRα; full length polynucleotide and amino acid sequences are set forth in SEQ ID NO: 53 and SEQ ID NO: 54, respectively). The prepared receptor constructs comprise a ligand binding domain of EcR and of RXR or of USP; a DNA binding domain of GAL4 or of EcR; and an activation domain of VP16. The reporter constructs include a reporter gene, luciferase or LacZ, operably linked to a synthetic promoter construct that comprises either GAL4 or EcR/USP binding sites (response elements). Various combinations of these receptor and reporter constructs were cotransfected into CHO, NIH3T3, CV1 and 293 cells. […] Reporter gene expression activities were assayed at 24 hr or 48 hr after ligand addition.
The same procedures described for CHO cells were followed for 3T3 cells as well with two modifications. The cells were plated when they reached 50% confluency. 125,000 or 50,000 or 25,000 cells were plated per well of 6- or 12- or 24-well plates respectively. The GAl4EcR/VP16RXR and reporter vector DNAs were transfected into NIH3T3 cells, the transfected cells were grown in medium containing PonA, MurA, N-(2-ethyl-3-methoxybenzoyl)-N′-(3,5-dimethylbenzoyl)-N′-t-butylhydrazine, or N-(3,4-(1,2-ethylenedioxy)-2-methylbenzoyl)-N′-(3,5-dimethylbenzoyl)-N′-tert-butylhydrazine for 48 hr. The ligand treatments were performed as described in the CHO cell section above.
Cells were harvested 24-48 hr after adding ligands. 125, 250, or 500 μl of passive lysis buffer (part of Dual-luciferase™ reporter assay system from Promega Corporation) were added to each well of 24- or 12- or […] respectively. The plates were placed on a rotary shaker for 15 min. Twenty μl of lysate was assayed. Luciferase activity was measured using Dual-luciferase™ reporter assay system from Promega Corporation following the manufacturer's instructions. β-Galactosidase was measured using Galacto-Star™ assay kit from TROPIX following the manufacturer's instructions. All luciferase and β-galactosidase activities were normalized using Renilla luciferase as a standard. Fold activities were calculated by dividing normalized relative light units (“RLU”) in ligand treated cells with normalized RLU in DMSO treated cells (untreated control).

CfVgRXR = test: Transactivation of reporter genes through switch 1.10 in CHO cells; assay type: cell-based, Choristoneura fumiferana; settings: switch 1.10 CfVgRXR, pIND(SP1)LacZ
Experimental: This example was prepared in the same way as switch 1.9 except MmRXR (SEQ ID NO: 53) was deleted.
as §1, §2

GAL4RXR + VP16CfEcR = test: Transactivation of reporter genes through switch 1.3 in CV1 cells; assay type: cell-based, Choristoneura fumiferana; settings: switch 1.3 GAL4RXR + VP16CfEcR, pGAL4RELuc
Experimental: (§4) The same procedures described for NIH3T3 cells were followed for CV1 cells
as §2

CfVgRXR + MmRXR [4] = test: Transactivation of reporter genes through switch 1.9 in CV1 cells; assay type: cell-based, Choristoneura fumiferana; settings: switch 1.9 CfVgRXR + MmRXR, pIND(SP1)LacZ
Experimental: as §3, §4, §2

Compound: CCc1c(OC)cccc1C(=O)NN(C(=O)c1cc(C)cc(C)c1)C(C)(C)C [N-(2-ethyl-3-methoxybenzoyl)-N′-(3,5-dimethylbenzoyl)-N′-tert-butylhydrazine]
- Mean Fold Activation with 50 μM N-(2-ethyl-3-methoxybenzoyl)-N′-(3,5-dimethylbenzoyl)-N′-t-butylhydrazine (GAL4CfEcRVP16): 9 fold
- Mean Fold Activation with 50 μM N-(2-ethyl-3-methoxybenzoyl)-N′-(3,5-dimethylbenzoyl)-N′-t-butylhydrazine (GAL4EcR + VP16RXR [1]): 267 fold
- Mean Fold Activation with 50 μM N-(2-ethyl-3-methoxybenzoyl)-N′-(3,5-dimethylbenzoyl)-N′-t-butylhydrazine (CfVgRXR + MmRXR [2]): 27 fold
- Mean Fold Induction at 1.0 μM Concentration (GAL4EcR + VP16RXR [3]; GAL4CfEcRDEF/VP16MmRXRDEF (switch 1.1), 1.0 μM ligand, 48 hr): 116 fold
- Mean Fold Activation Through N-(2-ethyl-3-methoxybenzoyl)-N′-(3,5-dimethylbenzoyl)-N′-t-butylhydrazine (GAL4EcR + VP16RXR [3]; switch 1.1 GAL4EcR + VP16RXR, pGAL4RELuc): 1118 fold
- Mean Fold Activation with 50 μM N-(2-ethyl-3-methoxybenzoyl)-N′-(3,5-dimethylbenzoyl)-N′-t-butylhydrazine (CfVgRXR): 29 fold
- Mean Fold Activation Through N-(2-ethyl-3-methoxybenzoyl)-N′-(3,5-dimethylbenzoyl)-N′-t-butylhydrazine (GAL4RXR + VP16CfEcR): 25 fold
- Mean Fold Activation Through N-(2-ethyl-3-methoxybenzoyl)-N′-(3,5-dimethylbenzoyl)-N′-t-butylhydrazine (CfVgRXR + MmRXR [4]): 7 fold
